Read-outs that look alike come from different tables or passages of the source.
Columns and labels:
[1] = type: in vitro ADME, human
Method: Transdermal penetration was performed in a single-chamber, solvent-replacement Diffusion Cell, held vertically and inverted (FIG. 13). Half-inch diameter discs of skin to which nylon washers had been cemented with cyanoacrylate were used. The available diffusional area of each skin disc enclosed by the nylon washer was 0.495 cm^2. The cell was assembled from parts of a commercial PVC coupling manufactured by Genova Products, Inc., Davison, Mich. The body of the coupling serves as the receptor chamber. The skin disc (5), kept flat by the nylon washer (6) cemented to its surface, is seated in the bottom end of the chamber, dermal side in contact with the receptor fluid (8). After test material is applied to the skin surface, an O-ring (4) and a flanged PVC washer (2) coated with aluminum foil (3) are positioned under the nylon washer on the skin, and a retaining nut (1) is carefully tightened under all. A small, teflon-covered magnetic stirring button (7) and the receptor fluid are introduced, after which the top end of the coupling is stoppered with another foil-coated flanged washer (9). After assembly, the cell is held in a rack on a magnetic stirrer, in a 32° C. incubator. The magnetic stirring button is used to stir the receptor fluid in the inverted cell, and this button spins in direct contact with the dermal side of the skin. […]

[2] = oral, vaginal or rectal; cited from earlier work
[3] = Intradermal penetration of progesterone by autoradiography
Description: Therefore, an alternative procedure was used to acquire skin surface biopsies (Marks and Dawber, 1971, Brit. J. Dermatol. 85:117-123). Surface biopsies consist of a sheet of the top 2-3 layers of the stratum corneum, which retain vellus hairs on the underside, along with fragments of the pilosebaceous ducts known as "follicular casts" (Lavker and Leyden, 1979, "Lamellar Inclusions in Follicular Horny Cells: A New Aspect of Abnormal Keratinization," J. Ultrastruct. Res. 69: 362-370). These samples are produced by application of a drop of cyanoacrylate adhesive on a microscope slide to the surface of the skin, and after the adhesive sets, the slide with adhering tissue is carefully peeled off.
Discs of skin were prepared as described in "Methods", for measurement of intradermal penetration, but using much larger washers to provide test sites of about 10 cm2 in area. A test formula containing 20% progesterone (Sample Z) was applied, and uptake into the skin was allowed to proceed for one hour, and for 20 hours. Surface residue was removed at the indicated times, using the rinse/wipe procedure described. Skin surface biopsies were taken from 1 & 20-Hr skin discs, and coated with photographic emulsion (Illford K-2 emulsion, Illford, London), then allowed to develop for 14 days. Rinsing and fixing were done as prescribed by the manufacturer.

[4] = in vivo; cited from earlier work
[5] = Progesterone penetration through a dialysis membrane; type: in vitro ADME
Method: Tritium-labeled progesterone was obtained from NEN-DuPont (Wilmington, Del.), with the label at ring positions 1, 2, 6, and 7. It was incorporated in the test compositions in the range 100 to 500 DPM (Disintegration Per Minute) per microgram of progesterone. The labeled progesterone was incorporated at the pre-polymerization stage, i.e., just as water is added to form the hydrogel polymer. Aliquots of the gelling mixtures were added to small amounts of tritiated progesterone in scintillation vials (after the solvent had been evaporated), and stirred briskly with a small spatula. The vials were then tightly capped and stored at room temperature. Milligram portions of this mixture were then taken from widely-spaced sites from within the vials, rapidly weighed, and dispersed in scintillation cocktail for determination of specific activities.
Transdermal penetration was performed in a single-chamber, solvent-replacement Diffusion Cell, held vertically and inverted (FIG. 13). Half-inch diameter discs of skin to which nylon washers had been cemented with cyanoacrylate were used. The available diffusional area of each skin disc enclosed by the nylon washer was 0.495 cm^2. […]
Thus, penetration of progesterone through a dialysis membrane, which was assumed to be more permeable than the skin, was measured to see how much progesterone could accumulate in the receptor of the diffusion cells. […]

[6] = cited from earlier work
[7] = cited from earlier work; remark: listed apart in the source
[8] = combination of progesterone and estrogen; cited from earlier work
[9] = Transdermal penetration of progesterone: oleic acid, myristic acid and butylurea enhancers; type: in vitro ADME, human
Description: Excised full-thickness human skin was obtained from elective surgery, (e.g., breast reductions) or occasionally, from amputated legs. The tissue was stored in plastic containers at refrigerator temperature until use, at which time the subcutaneous fat and connective tissue were carefully trimmed off. Skin specimen thickness was in the range 1.5-2.0 mm, with characteristic histological features preserved.
Tritium-labeled progesterone was obtained from NEN-DuPont (Wilmington, Del.), with the label at ring positions 1, 2, 6, and 7. It was incorporated in the test compositions in the range 100 to 500 DPM (Disintegration Per Minute) per microgram of progesterone. The labeled progesterone was incorporated at the pre-polymerization stage, i.e., just as water is added to form the hydrogel polymer. Aliquots of the gelling mixtures were added to small amounts of tritiated progesterone in scintillation vials (after the solvent had been evaporated), and stirred briskly with a small spatula. The vials were then tightly capped and stored at room temperature. […]
Rates of transdermal penetration of progesterone were determined for three samples: A-1, A-2, and A-3. […]
Some of the data from these determinations are plotted in FIG. 16, to illustrate how the rates were determined. […]

| SMILES | increase of rate after removal of the epidermis [1] | half life in the body [2] | accumulation in follicles vs stratum corneum, autoradiography [3] | distribution of progesterone in the skin, autoradiography [3] | distribution depth within the follicle, autoradiography ([3]; 0.2 mm-long follicular fragment) | amount of progesterone in the breast tissue [4] | increase in progesterone concentration in breast tissue [4] | lag time, dialysis membrane [5] | rate of penetration through dialysis membrane ([5]; about 1.5 hours) | rate of transdermal penetration in vitro ([6]; 2-pyrrolidone enhancer) | rate of transdermal penetration in vitro ([6]; N-methylformamide enhancer) | rate of transdermal penetration in vitro ([6]; no enhancer, acetone solution) [μg/cm^2 /hour] | amount penetrated in a 24-hour period ([7]; 24 hours, thin film in vivo, Guy et al.) | penetration rate reported by Guy et al. ([7]; human skin in vivo) [μg/cm^2 /day] | mean serum level giving an optimal effect in the treatment of menopause [8] [ng/mL] | efficacy in promoting the penetration of progesterone through the skin [9] |
| --- | --- | --- | --- | --- | --- | --- | --- | --- | --- | --- | --- | --- | --- | --- | --- | --- |
| CC(=O)[C@H]1CC[C@H]2[C@@H]3CCC4=CC(=O)CC[C@]4(C)[C@H]3CC[C@]12C [progesterone, pregn-4-ene-3,20-dione] | about 2 fold | about 2.2 hours | Accumulation in the follicles appeared to be faster than in the stratum corneum | preferential accumulation of progesterone in the pilosebaceous follicles | distributed uniformly to this depth within the lipid-rich interior of the follicle | high amounts | five-fold | no lag time | about 30 μg/cm^2 /Hr | 11.4 (+/-4.6) μg/cm^2 /hour | 12.4 (+/-4.4) μg/cm^2 /hour | 0.477 | about 1.2 μg/cm^2 | 1.2 | 2 | – |
| CCCCNC(N)=O [n-butylurea, butylurea] | – | – | – | – | – | – | – | – | – | – | – | – | – | – | – | clearly the most efficacious of the three |
